# Source: patent US6355799B1, “Substituted benzene compounds, process for their preparation, and herbicidal and defoliant compositions containing them” (ISK Americas Incorporated, priority 1997, dated 2002)
# Tests used:
# Type in all cases: in vivo
# [1] = system: field corn (Zea mays L., var. Dekalb 535, CORN); assay: Post-emerge test, crop safety; settings: post-emerge, 14 days after application, rating scale 0-100
# How it was run: (§1)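 Applied at 15–1000 g ai/ha from acetone in 187 l/ha spray volume. Post-emergence applications included 0.25% v/v non-ionic surfactant and reached plants sown 8–21 days before. Pre-emergence applications were incorporated by surface watering. Efficacy or crop damage was rated on a 0–100 scale after 14 days.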
# [2] = system: upland rice (Oryza sp., var. Tebonnet, RICE); assay: Post-emerge test, crop safety; settings: post-emerge, 14 days after application, rating scale 0-100
# How it was run: as §1
# [3] = system: large crabgrass (Digitaria sanguinalis, DIGSA); assay: Pre-emerge test, greenhouse herbicide activity screening; settings: pre-emerge, 14 days after application, scale 0-100
# How it was run: as §1
# [4] = system: green foxtail (Setaria viridis, SETVI); assay: as above; settings: pre-emerge, 14 days after application, scale 0-100
# How it was run: as §1
# [5] = system: velvetleaf (Abutilon theophrasti, ABUTH); assay: as above; settings: pre-emerge, 14 days after application, scale 0-100
# How it was run: as §1
# [6] = system: lambsquarters (Chenopodium album, CHEAL); assay: as above; settings: pre-emerge, 14 days after application, scale 0-100
# How it was run: as §1
# [7] = system: barnyardgrass (Echinochloa crus-galli, ECHCG); assay: as above; settings: pre-emerge, 14 days after application, scale 0-100
# How it was run: as §1
# [8] = system: sicklepod (Cassia obtusifolia, CASOB); assay: as above; settings: pre-emerge, 14 days after application, scale 0-100
# How it was run: as §1
# [9] = system: ivyleaf morningglory (Ipomoea hederacea, IPOHE); assay: as above; settings: pre-emerge, 14 days after application, scale 0-100
# How it was run: as §1
# [10] = system: johnsongrass (Sorghum halepense, SORHA); assay: as above; settings: pre-emerge, 14 days after application, scale 0-100
# How it was run: as §1
# [11] = system: large crabgrass (Digitaria sanguinalis, DIGSA); assay: Post-emerge test, greenhouse herbicide activity screening; settings: post-emerge, 14 days after application, rating scale 0-100
# How it was run: (§2)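 Fourteen days after spraying, crop and weed injury was graded visually from 0, no effect, to 100, every plant dead. Test substances were dissolved in acetone and applied at 15–1000 g ai/ha with a flat-fan nozzle. Application was either pre-emergence, one day after sowing, or post-emergence at the 2–3 leaf stage.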
# [12] = system: green foxtail (Setaria viridis, SETVI); assay: as above; settings: post-emerge, 14 days after application, rating scale 0-100
# How it was run: as §2
# [13] = system: velvetleaf (Abutilon theophrasti, ABUTH); assay: as above; settings: post-emerge, 14 days after application, rating scale 0-100
# How it was run: as §2
# [14] = system: lambsquarters (Chenopodium album, CHEAL); assay: as above; settings: post-emerge, 14 days after application, rating scale 0-100
# How it was run: as §2
# [15] = system: barnyardgrass (Echinochloa crus-galli, ECHCG); assay: as above; settings: post-emerge, 14 days after application, rating scale 0-100
# How it was run: as §2
# [16] = system: sicklepod (Cassia obtusifolia, CASOB); assay: as above; settings: post-emerge, 14 days after application, rating scale 0-100
# How it was run: as §2
# [17] = system: ivyleaf morningglory (Ipomoea hederacea, IPOHE); assay: as above; settings: post-emerge, 14 days after application, rating scale 0-100
# How it was run: as §2
# [18] = system: redroot pigweed (Amaranthus retroflexus, AMARE); assay: as above; settings: post-emerge, 14 days after application, rating scale 0-100
# How it was run: as §2
# [19] = system: johnsongrass (Sorghum halepense, SORHA); assay: as above; settings: post-emerge, 14 days after application, rating scale 0-100
# How it was run: as §2
# [20] = system: field corn (Zea mays L., var. Dekalb 535, CORN); assay: Pre-emerge test, crop safety; settings: pre-emerge, 14 days after application, scale 0-100
# How it was run: (§3)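 Rating: 0–100 visual injury, 14 DAA. Application: acetone, 187 l/ha, 15–1000 g ai/ha, flat-fan track sprayer with nozzle 40–45 cm above soil or canopy. Post-emerge runs used 0.25% v/v surfactant on 2–3 leaf plants.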
# [21] = system: upland rice (Oryza sp., var. Tebonnet, RICE); assay: Pre-emerge test, crop safety; settings: pre-emerge, 14 days after application, scale 0-100
# How it was run: as §3
# [22] = system: redroot pigweed (Amaranthus retroflexus, AMARE); assay: Pre-emerge test, greenhouse herbicide activity screening; settings: pre-emerge, 14 days after application, scale 0-100
# How it was run: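 Compounds in acetone were track-sprayed at 187 l/ha, 15–1000 g ai/ha, onto sandy loam pots. Pre-emerge seeds were sown one day before spraying, with surface watering afterwards. Post-emerge plants were at the 2–3 leaf stage and sprayed with 0.25% v/v non-ionic surfactant. Injury was rated 0–100 at 14 days.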
structure (smiles),measurement,setting,value
COc1c(Cl)cc(F)c(-n2c(=O)cc(C(F)(F)F)n(C)c2=O)c1NC(=O)CSC [2-168],CORN phytotoxicity rating (crop damage),[1]; 63 g ai/ha,5
same,CORN phytotoxicity rating (crop damage),[1]; 250 g ai/ha,10
same,RICE phytotoxicity rating (crop damage),[2]; 63 g ai/ha,10
same,RICE phytotoxicity rating (crop damage),[2]; 250 g ai/ha,30
same,phytotoxicity rating DIGSA,[3]; 63 g ai/ha,0
same,phytotoxicity rating DIGSA,[3]; 250 g ai/ha,80
same,phytotoxicity rating SETVI,[4]; 63 g ai/ha,10
same,phytotoxicity rating SETVI,[4]; 250 g ai/ha,95
same,phytotoxicity rating ABUTH,[5]; 63 g ai/ha,60
same,phytotoxicity rating ABUTH,[5]; 250 g ai/ha,100
same,phytotoxicity rating CHEAL,[6]; 63 g ai/ha,100
same,phytotoxicity rating CHEAL,[6]; 250 g ai/ha,100
same,phytotoxicity rating ECHCG,[7]; 63 g ai/ha,0
same,phytotoxicity rating ECHCG,[7]; 250 g ai/ha,20
same,phytotoxicity rating CASOB,[8]; 63 g ai/ha,30
same,phytotoxicity rating CASOB,[8]; 250 g ai/ha,80
same,phytotoxicity rating IPOHE,[9]; 63 g ai/ha,40
same,phytotoxicity rating IPOHE,[9]; 250 g ai/ha,90
same,phytotoxicity rating SORHA,[10]; 63 g ai/ha,0
same,phytotoxicity rating SORHA,[10]; 250 g ai/ha,90
same,DIGSA phytotoxicity rating,[11]; 63 g ai/ha,0
same,DIGSA phytotoxicity rating,[11]; 250 g ai/ha,0
same,SETVI phytotoxicity rating,[12]; 63 g ai/ha,0
same,SETVI phytotoxicity rating,[12]; 250 g ai/ha,10
same,ABUTH phytotoxicity rating,[13]; 63 g ai/ha,60
same,ABUTH phytotoxicity rating,[13]; 250 g ai/ha,100
same,CHEAL phytotoxicity rating,[14]; 63 g ai/ha,30
same,CHEAL phytotoxicity rating,[14]; 250 g ai/ha,50
same,ECHCG phytotoxicity rating,[15]; 63 g ai/ha,0
same,ECHCG phytotoxicity rating,[15]; 250 g ai/ha,0
same,CASOB phytotoxicity rating,[16]; 63 g ai/ha,0
same,CASOB phytotoxicity rating,[16]; 250 g ai/ha,80
same,IPOHE phytotoxicity rating,[17]; 63 g ai/ha,60
same,IPOHE phytotoxicity rating,[17]; 250 g ai/ha,100
same,AMARE phytotoxicity rating,[18]; 63 g ai/ha,20
same,AMARE phytotoxicity rating,[18]; 250 g ai/ha,50
same,SORHA phytotoxicity rating,[19]; 63 g ai/ha,0
same,SORHA phytotoxicity rating,[19]; 250 g ai/ha,0
same,phytotoxicity rating CORN (crop damage),[20]; 63 g ai/ha,0
same,phytotoxicity rating RICE (crop damage),[21]; 63 g ai/ha,20
same,phytotoxicity rating RICE (crop damage),[21]; 250 g ai/ha,60
same,phytotoxicity rating AMARE,[22]; 63 g ai/ha,90
same,phytotoxicity rating AMARE,[22]; 250 g ai/ha,100
COc1c(Cl)cc(F)c(-n2c(=O)cc(C(F)(F)F)n(C)c2=O)c1NC(=O)CSc1ccc2ccccc2c1 [2-169],CORN phytotoxicity rating (crop damage),[1]; 63 g ai/ha,10
same,CORN phytotoxicity rating (crop damage),[1]; 250 g ai/ha,10
same,RICE phytotoxicity rating (crop damage),[2]; 63 g ai/ha,10
same,RICE phytotoxicity rating (crop damage),[2]; 250 g ai/ha,10
same,phytotoxicity rating DIGSA,[3]; 63 g ai/ha,0
same,phytotoxicity rating DIGSA,[3]; 250 g ai/ha,80
same,phytotoxicity rating SETVI,[4]; 63 g ai/ha,0
same,phytotoxicity rating SETVI,[4]; 250 g ai/ha,30
same,phytotoxicity rating ABUTH,[5]; 63 g ai/ha,0
same,phytotoxicity rating ABUTH,[5]; 250 g ai/ha,90
same,phytotoxicity rating CHEAL,[6]; 63 g ai/ha,65
same,phytotoxicity rating CHEAL,[6]; 250 g ai/ha,100
same,phytotoxicity rating ECHCG,[7]; 63 g ai/ha,0
same,phytotoxicity rating ECHCG,[7]; 250 g ai/ha,0
same,phytotoxicity rating CASOB,[8]; 63 g ai/ha,20
same,phytotoxicity rating CASOB,[8]; 250 g ai/ha,30
same,phytotoxicity rating IPOHE,[9]; 63 g ai/ha,10
same,phytotoxicity rating IPOHE,[9]; 250 g ai/ha,20
same,phytotoxicity rating SORHA,[10]; 63 g ai/ha,0
same,phytotoxicity rating SORHA,[10]; 250 g ai/ha,20
same,DIGSA phytotoxicity rating,[11]; 63 g ai/ha,0
same,DIGSA phytotoxicity rating,[11]; 250 g ai/ha,0
same,SETVI phytotoxicity rating,[12]; 63 g ai/ha,0
same,SETVI phytotoxicity rating,[12]; 250 g ai/ha,0
same,ABUTH phytotoxicity rating,[13]; 63 g ai/ha,70
same,ABUTH phytotoxicity rating,[13]; 250 g ai/ha,80
same,CHEAL phytotoxicity rating,[14]; 63 g ai/ha,30
same,CHEAL phytotoxicity rating,[14]; 250 g ai/ha,40
same,ECHCG phytotoxicity rating,[15]; 63 g ai/ha,0
same,ECHCG phytotoxicity rating,[15]; 250 g ai/ha,0
same,CASOB phytotoxicity rating,[16]; 63 g ai/ha,10
same,CASOB phytotoxicity rating,[16]; 250 g ai/ha,10
same,IPOHE phytotoxicity rating,[17]; 63 g ai/ha,50
same,IPOHE phytotoxicity rating,[17]; 250 g ai/ha,40
same,AMARE phytotoxicity rating,[18]; 63 g ai/ha,10
same,AMARE phytotoxicity rating,[18]; 250 g ai/ha,0
same,SORHA phytotoxicity rating,[19]; 63 g ai/ha,0
same,SORHA phytotoxicity rating,[19]; 250 g ai/ha,0
same,phytotoxicity rating CORN (crop damage),[20]; 63 g ai/ha,0
same,phytotoxicity rating CORN (crop damage),[20]; 250 g ai/ha,0
same,phytotoxicity rating RICE (crop damage),[21]; 63 g ai/ha,10
same,phytotoxicity rating RICE (crop damage),[21]; 250 g ai/ha,40
same,phytotoxicity rating AMARE,[22]; 63 g ai/ha,70
same,phytotoxicity rating AMARE,[22]; 250 g ai/ha,80
